Assay results as given in US6274557A, “Inhibition of nitric oxide synthase by amino acids and dipeptides” (Northwestern University, priority 1999, dated 2001).
Several values for one entry are separate records, joined by “and”; a condition that tells them apart may be missing. Equal entries are not always repeated. Where two headings read alike, the source gives them in different places. Peptide text beside a SMILES is read from it.

Key:
[1] = system: nitric oxide synthases (nNOS, iNOS, eNOS); settings: literature; cited from earlier work
[2] = molecular target: neuronal nitric oxide synthase (nNOS) from bovine brain (Bos taurus, UniProt A0A3Q1M6M2); experiment: Hemoglobin capture assay of nitric oxide formation, nNOS; settings: for most potent inhibitors (based on isoform inhibition data): dipeptide amides of Table 3; for nNOS/iNOS selectivity / nNOS/eNOS selectivity: Table 2 dipeptides; for nNOS/iNOS selectivity: in favor of nNOS over iNOS; for nNOS/eNOS selectivity: nNOS over eNOS; for time-dependent inhibition of any of the isoforms: nNOS, iNOS and eNOS
Experimental: (§1) Nitric oxide formation was measured by using the hemoglobin capture assay. […] The production of nitric oxide by eNOS was measured as described. […] All assays were in a final volume of 600 μL and were initiated with enzyme.
(§2) The reversible inhibition of NOS by the dipeptide analogs was studied under initial rate conditions with the hemoglobin assay as described above. […] With various L-arginine and inhibitor concentrations.

[3] = molecular target: recombinant murine macrophage nitric oxide synthase (iNOS) (Mus musculus, UniProt P29477); experiment: Hemoglobin capture assay of nitric oxide formation, iNOS; settings: for iNOS/eNOS selectivity: Table 2 dipeptides
Experimental: as §1, §2

[4] = molecular target: T1, recombinant bovine endothelial nitric oxide synthase (eNOS) (Bos taurus, UniProt P29473); experiment: Hemoglobin capture assay of nitric oxide formation, eNOS; type: biochemical; settings: for selectivity of eNOS over iNOS: Table 2 dipeptides
T1 construct: made in house; host or cells: E. coli
Experimental: as §1, §2

[5] = read-out: Ki iNOS, Table 2, Dixon plots, ^a = uncompetitive inhibition
[6] = read-out: Ki nNOS, Table 2, Dixon plots

Sequence of neuronal nitric oxide synthase (nNOS) from bovine brain (A0A3Q1M6M2 entry or part of it): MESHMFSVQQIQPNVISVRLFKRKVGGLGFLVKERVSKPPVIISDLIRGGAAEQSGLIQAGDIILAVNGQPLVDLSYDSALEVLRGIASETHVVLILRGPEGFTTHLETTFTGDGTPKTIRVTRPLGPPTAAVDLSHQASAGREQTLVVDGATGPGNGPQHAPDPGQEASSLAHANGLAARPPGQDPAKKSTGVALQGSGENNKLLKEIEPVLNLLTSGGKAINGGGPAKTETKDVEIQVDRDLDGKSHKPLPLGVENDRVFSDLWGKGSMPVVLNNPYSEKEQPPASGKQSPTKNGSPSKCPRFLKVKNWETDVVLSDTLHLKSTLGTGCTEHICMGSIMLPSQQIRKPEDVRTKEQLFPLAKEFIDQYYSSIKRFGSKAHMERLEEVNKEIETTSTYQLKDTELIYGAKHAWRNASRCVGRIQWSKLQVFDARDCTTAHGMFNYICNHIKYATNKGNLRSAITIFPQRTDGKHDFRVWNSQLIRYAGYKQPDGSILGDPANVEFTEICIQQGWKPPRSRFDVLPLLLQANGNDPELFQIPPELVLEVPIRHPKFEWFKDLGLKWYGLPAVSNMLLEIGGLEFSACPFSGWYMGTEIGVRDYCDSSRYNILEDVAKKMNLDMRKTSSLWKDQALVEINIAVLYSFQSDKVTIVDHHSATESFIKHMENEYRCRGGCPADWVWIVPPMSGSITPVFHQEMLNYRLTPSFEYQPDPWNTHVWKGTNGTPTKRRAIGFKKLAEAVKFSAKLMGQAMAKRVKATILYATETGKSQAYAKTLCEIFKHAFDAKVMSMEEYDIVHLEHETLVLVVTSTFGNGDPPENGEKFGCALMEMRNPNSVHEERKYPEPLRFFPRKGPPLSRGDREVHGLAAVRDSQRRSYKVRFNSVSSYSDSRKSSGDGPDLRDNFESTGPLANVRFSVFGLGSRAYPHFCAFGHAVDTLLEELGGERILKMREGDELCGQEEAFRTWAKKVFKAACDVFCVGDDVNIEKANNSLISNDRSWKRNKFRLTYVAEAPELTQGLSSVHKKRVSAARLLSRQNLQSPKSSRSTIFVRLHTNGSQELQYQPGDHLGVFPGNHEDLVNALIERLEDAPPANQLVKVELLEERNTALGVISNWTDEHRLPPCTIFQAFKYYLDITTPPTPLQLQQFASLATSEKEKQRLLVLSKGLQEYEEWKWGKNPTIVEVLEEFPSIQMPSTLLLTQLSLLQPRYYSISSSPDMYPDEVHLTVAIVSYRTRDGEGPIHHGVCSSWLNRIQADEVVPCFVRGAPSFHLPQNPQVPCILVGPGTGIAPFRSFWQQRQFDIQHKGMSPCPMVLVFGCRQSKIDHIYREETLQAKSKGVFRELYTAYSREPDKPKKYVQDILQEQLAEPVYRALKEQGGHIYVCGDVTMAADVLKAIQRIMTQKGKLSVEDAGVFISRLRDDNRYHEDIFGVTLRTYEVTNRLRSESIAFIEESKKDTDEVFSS

| SMILES | iNOS/eNOS selectivity [3] | Ki [3, 5] | Ki ([4]; Table 2, Dixon plots) | nNOS/iNOS selectivity [2] | nNOS/eNOS selectivity [2] | Ki [2, 6] | other results |
| --- | --- | --- | --- | --- | --- | --- | --- |
| CC1CCN=C(N)S1 (stereo not drawn) [2-Amino-5,6-dihydro-6-methyl-4H-1,3-thiazine] | – | – | – | – | – | – | selectivity in favor of iNOS [1]: 10-40 fold |
| N=C(N)NN [Aminoguanidine] | – | – | – | – | – | – | selectivity for iNOS over eNOS [1]: 500 fold; selectivity for iNOS over nNOS [1]: 50 fold |
| N=C(NCCC[C@@H](NC(=O)[C@H](N)CCCCN)C(N)=O)N[N+](=O)[O-] [D-Lys-D-nitroArg] (HELM PEPTIDE1{[dK].[N=C(NCCC[C@@H](N[*:1])C(=O)[*:2])N[N+](=O)[O-]].[am]}$$$$V2.0) | – | – | – | – | – | – | most potent inhibitors (based on isoform inhibition data) [2]: most potent |
| N=C(NCCC[C@@H](NC(=O)[C@H](N)CCCN)C(N)=O)N[N+](=O)[O-] [D-Orn-D-nitroArg] (HELM PEPTIDE1{[NCCC[C@@H](N)C(=O)[*:2]].[N=C(NCCC[C@@H](N[*:1])C(=O)[*:2])N[N+](=O)[O-]].[am]}$$$$V2.0) | – | – | – | – | – | – | most potent inhibitors (based on isoform inhibition data) [2]: most potent |
| N=C(NCCC[C@@H](NC(=O)[C@@H](N)Cc1cnc[nH]1)C(N)=O)N[N+](=O)[O-] [L-His-D-nitroArg] (HELM PEPTIDE1{H.[N=C(NCCC[C@@H](N[*:1])C(=O)[*:2])N[N+](=O)[O-]].[am]}$$$$V2.0) | – | – | – | – | – | – | most potent inhibitors (based on isoform inhibition data) [2]: most potent |
| N=C(NCCC[C@@H](NC(=O)[C@@H](N)CCCCN)C(N)=O)N[N+](=O)[O-] [L-Lys-D-nitroArg] (HELM PEPTIDE1{K.[N=C(NCCC[C@@H](N[*:1])C(=O)[*:2])N[N+](=O)[O-]].[am]}$$$$V2.0) | – | – | – | – | – | – | most potent inhibitors (based on isoform inhibition data) [2]: most potent |
| CC(=N)NCCCC[C@H](N)C(=O)O [L-N^6-(1-Iminoethyl)lysine] | – | – | – | – | – | – | selectivity for iNOS over eNOS [1]: 30 fold; selectivity for iNOS over nNOS [1]: 13 fold |
| N=C(NCCC[C@H](N)C(=O)N[C@H](CC(N)=O)C(N)=O)N[N+](=O)[O-] [L-nitroArg-D-Asn] (HELM PEPTIDE1{[N=C(NCCC[C@H](N)C(=O)[*:2])N[N+](=O)[O-]].[dN].[am]}$$$$V2.0) | – | – | – | – | – | – | most potent inhibitors (based on isoform inhibition data) [2]: most potent |
| N=C(NCCC[C@H](N)C(=O)N[C@H](CCC(N)=O)C(N)=O)N[N+](=O)[O-] [L-nitroArg-D-Gln] (HELM PEPTIDE1{[N=C(NCCC[C@H](N)C(=O)[*:2])N[N+](=O)[O-]].[dQ].[am]}$$$$V2.0) | – | – | – | – | – | – | most potent inhibitors (based on isoform inhibition data) [2]: most potent |
| N=C(NCCC[C@H](N)C(=O)N[C@@H](CCN)C(=O)O)N[N+](=O)[O-] [L-nitroArg-L-Dbu, L-nitroArg-L-2,4-diaminobutanoic acid] (HELM PEPTIDE1{[N=C(NCCC[C@H](N)C(=O)[*:2])N[N+](=O)[O-]].[Dab]}$$$$V2.0) | – | – | – | – | – | – | most potent inhibitors (based on isoform inhibition data) [2]: most potent |
| N=C(NCCC[C@H](N)C(=O)N[C@@H](CN)C(=O)O)N[N+](=O)[O-] [L-nitroArg-L-Dpr, L-nitroArg-L-2,3-diaminopropanoic acid] (HELM PEPTIDE1{[N=C(NCCC[C@H](N)C(=O)[*:2])N[N+](=O)[O-]].[NC[C@H](N[*:1])C(=O)O]}$$$$V2.0) | – | – | – | – | – | – | most potent inhibitors (based on isoform inhibition data) [2]: most potent |
| NC(=NCCC[C@H](N)C(=O)O)N[N+](=O)[O-] [N-nitro-L-arginine, N^ω --Nitro-L-arginine, reference compound] | – | – | – | – | – | – | selectivity for nNOS over iNOS [1]: about 300 fold; Ki ([2]; read-out: KI (time-dependent inhibition), with nNOS): 9.3 µM; kinact ([2]; with nNOS): 0.132 min⁻¹ |
| CSC(N)=NCCC[C@H](N)C(=O)O [S-Methyl-L-thiocitrulline] | – | – | – | – | – | – | selectivity for nNOS than eNOS [1]: 10 fold |
| CCSC(N)=NCCC[C@H](N)C(=O)O [S-ethyl-L-thiocitrulline] | – | – | – | – | – | – | selectivity for nNOS than eNOS [1]: 50 fold |
| CCSC(=N)N [S-ethylisothiourea] | – | – | – | – | – | – | selectivity in favor of iNOS [1]: 10-40 fold |
| C=CCNC(=N)NCCC[C@H](N)C(=O)O [allyl, N^ω -allyl-L-arginine, reference compound] | – | – | – | – | – | – | Ki [3]: 2.1 µM; Ki ([4]; Table 1): 3.1 µM; Ki [2]: 0.2 µM; Selectivity nNOS/eNOS [2]: 15 and 15.5 |

| SMILES | iNOS/eNOS selectivity [3] | Ki [3, 5] | Ki ([4]; Table 2, Dixon plots) | nNOS/iNOS selectivity [2] | nNOS/eNOS selectivity [2] | Ki [2, 6] | other results |
| --- | --- | --- | --- | --- | --- | --- | --- |
| N=C(NCCC[C@H](N)C(=O)N[C@@H](Cc1ccccc1)C(=O)O)N[N+](=O)[O-] [compound 1, L-Arg^NO2 L-Phe] | 2.5 | 160 µM | 395 µM | 8.9 | 21.9 | 18 µM | time-dependent inhibition of any of the isoforms [2]: None |
| N=C(NCCC[C@H](NC(=O)[C@@H](N)Cc1ccccc1)C(=O)O)N[N+](=O)[O-] [compound 2, L-Phe-L-Arg^NO2] (HELM PEPTIDE1{F.[N=C(NCCC[C@H](N[*:1])C(=O)O)N[N+](=O)[O-]]}$$$$V2.0) | 5.3 | 93 µM | 490 µM | 0.66 | 3.5 | 140 µM | time-dependent inhibition of any of the isoforms [2]: None |
| COC(=O)[C@H](Cc1ccccc1)NC(=O)[C@@H](N)CCCNC(=N)N[N+](=O)[O-] [compound 3, L-Arg^NO2 -L-Phe-OMe] | 8.9 | 45 µM | 400 µM | 3.2 | 28.6 | 14 µM | – |
| COC(=O)[C@H](CCCNC(=N)N[N+](=O)[O-])NC(=O)[C@@H](N)Cc1ccccc1 [compound 4, L-Phe-L-Arg^NO2 -OMe] (HELM PEPTIDE1{F.[N=C(NCCC[C@H](N[*:1])C(=O)[*:2])N[N+](=O)[O-]].[CO[*:1]]}$$$$V2.0) | 6.6 | 204 µM | 1350 µM | 0.55 | 3.6 | 370 µM | – |
| N=C(NCCC[C@H](N)C(=O)N[C@@H](Cc1ccccc1)C(=O)OCc1ccccc1)N[N+](=O)[O-] [compound 5, L-Arg^NO2 -L-Phe-OBn] | 6.9 | 18 µM | 125 µM | 0.33 | 2.3 | 55 µM | – |
| N=C(NCCC[C@H](NC(=O)[C@@H](N)Cc1ccccc1)C(=O)OCc1ccccc1)N[N+](=O)[O-] [compound 6, L-Phe-L-Arg^NO2 -OBn] (HELM PEPTIDE1{F.[N=C(NCCC[C@H](N[*:1])C(=O)[*:2])N[N+](=O)[O-]].[c1ccc(CO[*:1])cc1]}$$$$V2.0) | 5.6 | 45 µM | 250 µM | 0.41 | 2.3 | 110 µM | – |
| COC(=O)[C@@H](Cc1ccccc1)NC(=O)[C@@H](N)CCCNC(=N)N[N+](=O)[O-] [compound 7, L-Arg^NO2 -D-Phe-OMe] | 5.3 | 100 µM | 525 µM | 1.1 | 5.7 | 92 µM | – |
| COC(=O)[C@H](Cc1ccccc1)NC(=O)[C@H](N)CCCNC(=N)N[N+](=O)[O-] [compound 8, D-Arg^NO2 -L-Phe-OMe] | 0.22 | 6400 µM | 1400 µM | 22.1 | 4.8 | 290 µM | – |
| COC(=O)[C@@H](Cc1ccccc1)NC(=O)[C@H](N)CCCNC(=N)N[N+](=O)[O-] [compound 9, D-Arg^NO2 -D-Phe-OMe] | 0.058 | 6500 µM | 375 µM | 43.3 | 2.5 | 150 µM | – |
| COC(=O)[C@@H](CCCNC(=N)N[N+](=O)[O-])NC(=O)[C@@H](N)Cc1ccccc1 [compound 10, L-Phe-D-Arg^NO2 -OMe] (HELM PEPTIDE1{F.[N=C(NCCC[C@@H](N[*:1])C(=O)[*:2])N[N+](=O)[O-]].[CO[*:1]]}$$$$V2.0) | 0.02 | 7500 µM | 150 µM | 83.3 | 1.7 | 90 µM | – |
| COC(=O)[C@H](CCCNC(=N)N[N+](=O)[O-])NC(=O)[C@H](N)Cc1ccccc1 [compound 11, D-Phe-L-Arg^NO2 -OMe] (HELM PEPTIDE1{[dF].[N=C(NCCC[C@H](N[*:1])C(=O)[*:2])N[N+](=O)[O-]].[CO[*:1]]}$$$$V2.0) | 7.1 | 1200 µM | 8500 µM | 3 | 21.3 | 400 µM | – |
| COC(=O)[C@@H](CCCN=C(N)N[N+](=O)[O-])NC(=O)[C@H](N)Cc1ccccc1 [compound 12, D-Phe-D-Arg^NO2 -OMe] (HELM PEPTIDE1{[dF].[N=C(NCCC[C@@H](N[*:1])C(=O)[*:2])N[N+](=O)[O-]].[CO[*:1]]}$$$$V2.0) | 0.0014 | 3600 µM | 5 µM | – | 2.5 | 2 µM | selectivity of eNOS over iNOS [4]: 714 fold; time-dependent inhibition of any of the isoforms [2]: None |
| N=C(NCCC[C@@H](NC(=O)[C@H](N)Cc1ccccc1)C(=O)O)N[N+](=O)[O-] [compound 13, D-Phe-D-Arg^NO2] (HELM PEPTIDE1{[dF].[N=C(NCCC[C@@H](N[*:1])C(=O)O)N[N+](=O)[O-]]}$$$$V2.0) | 0.0066 | 13600 µM | 90 µM | 800 | 5.3 | 17 µM | selectivity of eNOS over iNOS [4]: 152 fold; time-dependent inhibition of any of the isoforms [2]: None |
| CNC(=N)NCCC[C@H](N)C(=O)O [methyl, N^ω -methyl-L-arginine, reference compound] | – | – | – | – | – | – | IC50 [2]: 10 µM |
| C#CCNC(=N)NCCC[C@H](N)C(=O)O [propargyl, N^ω -propargyl-L-arginine, reference compound] | – | – | – | – | – | – | Ki [2]: 0.43 µM |
| CCCNC(=N)NCCC[C@H](N)C(=O)O [propyl, N^ω -Propyl-L-arginine] | – | – | – | – | – | – | Ki [3]: 180 µM; type of reversible inhibition of iNOS ([3]; Cornish-Bowden replots): competitive inhibitor; type of reversible inhibition of eNOS ([4]; Cornish-Bowden replots): competitive inhibitor; Ki ([4]; Table 1): 8.5 µM; Ki [2]: 0.057 µM; type of reversible inhibition of nNOS [2]: competitive inhibitor |
